US20240400542A1 (University of Virginia Patent Foundation, priority 2021, published 2024)

Assays:
[1] = molecular target: T1, PFKL (Homo sapiens, UniProt P17858); test: In situ gel-based ABPP, blockade of TH211 probe labeling in HEK293T cells; assay type: cell-based; settings: then 25 μM TH211 2 h; for probinding activity (blockade of TH211 probe labeling), protein at ˜80 molecular weight: HEK293T cells in situ, 1 μM compound 1 h
T1 construct: endogenous in cells; host or cells: HEK293T
T1 sequence (P17858 1-780): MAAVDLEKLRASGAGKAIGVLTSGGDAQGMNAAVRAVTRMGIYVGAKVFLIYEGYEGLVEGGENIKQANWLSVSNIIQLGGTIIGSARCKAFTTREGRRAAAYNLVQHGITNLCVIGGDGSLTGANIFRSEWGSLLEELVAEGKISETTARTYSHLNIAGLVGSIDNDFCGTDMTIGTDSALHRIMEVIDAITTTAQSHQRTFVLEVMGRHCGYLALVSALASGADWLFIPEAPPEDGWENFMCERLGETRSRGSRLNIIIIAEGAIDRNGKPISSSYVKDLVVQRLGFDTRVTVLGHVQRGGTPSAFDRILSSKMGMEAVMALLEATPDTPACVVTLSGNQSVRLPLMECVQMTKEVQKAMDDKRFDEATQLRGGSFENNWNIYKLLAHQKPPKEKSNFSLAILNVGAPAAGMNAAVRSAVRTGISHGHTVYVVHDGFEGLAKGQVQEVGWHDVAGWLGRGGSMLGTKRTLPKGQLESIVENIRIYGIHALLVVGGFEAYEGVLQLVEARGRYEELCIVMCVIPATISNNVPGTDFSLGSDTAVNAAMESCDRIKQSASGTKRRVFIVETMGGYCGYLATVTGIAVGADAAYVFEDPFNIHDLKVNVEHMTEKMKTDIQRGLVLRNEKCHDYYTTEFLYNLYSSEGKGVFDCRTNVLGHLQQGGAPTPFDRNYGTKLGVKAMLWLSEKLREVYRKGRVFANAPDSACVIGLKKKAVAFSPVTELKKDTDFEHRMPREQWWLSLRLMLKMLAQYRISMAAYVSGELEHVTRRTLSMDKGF
Procedure: HEK293T cells were incubated in 10 cm petri dishes with DMEM medium supplemented with 10% fetal bovine serum and 1% L-glutamine until the confluency reached about 90%. Aspirate the medium and then add serum-free-medium (SFM) with vehicle only (DMSO) or SuTEx compounds in DMSO, which afforded final concentrations of 0.1% DMSO. After incubation at 37° C. for 1 hrs in CO2 incubator, the medium was aspirated and 25 μM of probe TH211 in SFM was added. After incubation at 37° C. for 2 hrs, the medium was aspirated and the cells were washed off in cold PBS. Centrifuge at 400×g for 5 min to pellet and resuspend pellet again in PBS for 2× total washes. The cell pellets were resuspended and lysed by sonication (1 sec pulse, 20% amplitude, 3 times) in PBS in the presence of EDTA-free protease inhibitor cocktail tablet (Pierce Biotechnology, Waltham, Massachusetts, United States of America). The cell lysates were subject to ultracentrifugation (100,000×g, 45 min at 4° C.) to separate the cytosolic fraction in the supernatant and the membrane fraction as a pellet. Protein concentrations in soluble fraction were measured by the Bio-Rad DC protein assay (Bio-Rad Laboratories, Hercules, California, United States of America). Proteome aliquots (2 mg/mL, 50 μL) were conjugated with fluorophore which was accomplished by copper-catalyzed azide-alkyne cycloaddition (CuAAC) with rhodamine-azide (TAMRA-azide, 1.25 mM, 1 μL, final concentration of 25 μM) in the presence of tris(2-carboxyethyl)phosphine (TCEP, 50 mM fresh in water, 1 μL, final concentration of 1 mM), tris[(1-benzyl-1H-1,2,3-triazol-4-yl)methyl]amine (TBTA, 1.7 mM in 4:1 t-butanol/DMSO, 3 μL, final concentration of 100 μM) and CuSO4 (50 mM, 1 μL, final concentration of 1 mM). After 1 hr incubation at room temperature, reactions were quenched by adding 4×SDS-PAGE loading buffer and beta-mercaptoethanol (17 μL) and samples were resolved by SDS-PAGE followed by in-gel fluorescence scanning.
(§1) Some SuTEx analogues with RF001 fragment were synthesized and characterized. The in situ competition assay was then conducted, during which HEK293T cells were treated with 1 μM of a SuTEx analogue for 1 h, followed by treatment with 25 μM of TH211 as the probe for 2 h. […] The analogues with electron-donating groups like methyl or methoxy on the para position of phenyl performed better than those with electron-withdrawing groups. Under the same condition, the IC5o of TH220 was determined as 305.6 nM. The identity of the bound protein was studied by LC-MS/MS. The assay results indicated PFKL as the potential target and that binding sites include Y674 and K677, since the ratio trends are the same as that found in the in situ competition assay. To study selective targeting of PFKL by the series of SuTEx analogues, Fag-PFKL, Flag-PFKM, and Flag-PFKP were overexpressed in HEK293T cells and in vitro competition assays were performed for comparison. […] To optimize these SuTEx ligands, another series of derivatives were synthesized and evaluated with TH233 as a negative control and TH220 as positive control, respectively. […] Compared to TH220, the probinding activity of XJ-2-103 with trifluoromethyl group at para position of the phenyl ring is not as good, which is consistent with the results shown in FIG. 18A.

[2] = molecular target: T1, PFKL; test: SILAC competitive chemical proteomic assay (TH211 probe, LC-MS/MS); assay type: cell-based; settings: HEK293T in situ, vehicle (light) vs inhibitor 2 μM (heavy) 1 hr, then TH211 50 μM 2 h; protein/site not given
Procedure: The light and heavy proteomes (2.3 mg/mL, 432 μL) prepared from HEK293T cells that were pretreated in situ with vehicle (DMSO) or the inhibitor (2 μM), respectively, at 37° C. for 1 hr followed by probe TH211 treatment (50 μM) for 2 h, were directly were subjected to click reaction with the desthiobiotin-PEG3-azide (10 mM in DMSO, 10 μL, final concentration 200 μM) in the presence of TCEP (50 mM, 10 μL), TBTA (1.7 mM, 33 μL) and CuSO4 (50 mM, 10 μL) at room temperature for 1 hr. The light and the heavy samples were mixed in the chloroform-methanol extraction step. The subsequent steps including reduction with dithiothreitol, alkylation with iodoacetamide, digestion with Trypsin/Lys-C, enrichment with avidin beads were conducted as previously described^26.
as §1

[3] = HPLC solution reactivity of probe with p-cresol (tyrosine mimetic); assay type: physicochemical; settings: UV 254 nm, TMG base, 0° C., longest time point tested 90 min
Procedure: (§2) Briefly, reaction progress of KY-26 or XO44 with p-cresol or n-butylamine (16.5 μmol, 3.3 eq.) in the presence of TMG base (1,1,3,3-tetramethylguanidine, 1.1 eq) was evaluated by monitoring probe consumption and quantified based on the signal from the caffeine standard using HPLC. Synthetic peptide reactions were conducted by mixing the peptide (Ac-RLNERHYGGLTGLNK-NH2, 50 nmol, 1.0 eq.) with 1.1 eq of TMG. KY-26 (550 nmol, 11.0 eq) was added to the mixture and the reaction was kept at 37° C. until the reaction achieved at least 50% conversion.
(§3) More particularly, an acetonitrile solution of p-cresol or n-butylamine (16.5 μmol, 3.3 eq.) was mixed with 1.1 eq of TMG. KY-26 or XO44 in ACN:DMF=6:4 (5 μmol, 1.0 eq.) was added to the mixture and the reaction was kept at 0° C. The final molarity for KY-26 or XO44 is 10 mM. Aliquots (50 μl) of the reaction were taken and quenched by adding acetic acid (0.5 M final, 5.0 μmol) and caffeine standard (0.05 M final, 0.5 μmol) at ten-minute intervals for 1.5 hrs. 1.0 μL sample was injected and analyzed by reverse-phase HPLC with mobile phases A (H2O, 0.1% AcOH) and B (CH3CN, 0.1% AcOH) with a gradient of 0-15-85-100% B in 0-0.5-6.5-7 min. UV measurements taken at 254 nm. Reaction progress was evaluated by monitoring KY-26 or XO44 consumption and quantified based on the signal from the caffeine standard. […]

[4] = HPLC solution reactivity of probe with n-butylamine (lysine mimetic); assay type: physicochemical; settings: TMG base, 0° C., KY-26 compared with p-cresol
Procedure: as §2, §3

| SMILES | SILAC ratios (SR) from competitive chemical proteomic assay [2] | probinding activity (blockade of TH211 probe labeling), protein at ˜80 molecular weight [1] | other results |
| --- | --- | --- | --- |
| COc1ccc(S(=O)(=O)n2cc(CCN3CCC(=C(c4ccc(F)cc4)c4ccc(F)cc4)CC3)nn2)cc1 | 8.41 |  | IC50 ([1]; HEK293T cells, compound 1 h, read-out: IC50 against PFKL, in situ TH211 chemical proteomic assay): 306 nM |
| Cc1ccc(S(=O)(=O)n2cc(CCN3CCN(C(c4ccc(F)cc4)c4ccc(F)cc4)CC3)nn2)cc1 [TH208, 1-(Bis(4-fluorophenyl)methyl)-4-(2-(1-tosyl-1H-1,2,3-triazol-4-yl)ethyl)piperazine] | 1.04 |  |  |
| O=S(=O)(c1ccc(F)cc1)n1cc(CCN2CCC(=C(c3ccc(F)cc3)c3ccc(F)cc3)CC2)nn1 [TH221, 4-(Bis(4-fluorophenyl)methylene)-1-(2-(1-((4-fluorophenyl)sulfonyl)-1H-1,2,3-triazol-4-yl)ethyl)piperidine] | 2.48 |  |  |
| O=S(=O)(C1CC1)n1cc(CCN2CCC(=C(c3ccc(F)cc3)c3ccc(F)cc3)CC2)nn1 [TH223, 4-(bis(4-fluorophenyl)methylene)-1-(2-(1-(cyclopropylsulfonyl)-1H-1,2,3-triazol-4-yl)ethyl)piperidine] | 0.95 |  |  |
| O=S(=O)(c1ccc2c(c1)OCCO2)n1cc(CCN2CCC(=C(c3ccc(F)cc3)c3ccc(F)cc3)CC2)nn1 [XJ-2-77, 4-(Bis(4-fluorophenyl)methylene)-1-(2-(1-((2,3-dihydrobenzo[b][1,4]dioxin-6-yl)sulfonyl-)-1H-1,2,3-triazol-4-yl)ethyl)piperidine] |  | good probinding activity |  |
| O=S(=O)(c1ccc2c(c1)OCO2)n1cc(CCN2CCC(=C(c3ccc(F)cc3)c3ccc(F)cc3)CC2)nn1 [XJ-2-87] |  | good probinding activity |  |
| O=S(=O)(c1ccc2c(c1)OC(F)(F)O2)n1cc(CCN2CCC(=C(c3ccc(F)cc3)c3ccc(F)cc3)CC2)nn1 [XJ-2-115, 4-(Bis(4-fluorophenyl)methylene)-1-(2-(1-((2,2-difluorobenzo[d][1,3]dioxol-5-yl)sulfonyl)-1H-1,2,3-triazol-4-yl)ethyl)piperidine] |  | good probinding activity |  |
| COc1ccccc1S(=O)(=O)n1cc(CCN2CCC(=C(c3ccc(F)cc3)c3ccc(F)cc3)CC2)nn1 [XJ-2-141, 4-(Bis(4-fluorophenyl)methylene)-1-(2-(1-((2-methoxyphenyl)sulfonyl)-1H-1,2,3-triazol-4-yl)ethyl)piperidine] |  | good probinding activity |  |
| C#CCNC(=O)c1cc(Nc2cc(C3CC3)[nH]n2)nc(N2CCN(Cc3ccc(S(=O)(=O)F)cc3)CC2)n1 [XO44, reference compound] |  |  | time to near-complete depletion of probe in reaction with p-cresol [3]: > 90 min; reaction of probe with n-butylamine [4]: minimal reaction |
